Experimental data taken from ChEMBL document CHEMBL1667745, “Synthesis and antibacterial evaluation of novel clarithromycin derivatives with C-4″ elongated arylalkyl groups against macrolide-resistant strains” (2011).
Values after ≈ are worked out from the molar mass of the structure shown.

Tests used:
Format in all cases: functional
[1] = test system: Streptococcus pneumoniae; experiment: Antimicrobial activity against erythromycin-susceptible Streptococcus pneumoniae ATCC 49619 by broth microdilution method
[2] = test system: Streptococcus pneumoniae; experiment: Antimicrobial activity against erythromycin-resistant Streptococcus pneumoniae B1 expressing the erm gene by broth microdilution method
[3] = test system: Streptococcus pneumoniae; experiment: Antimicrobial activity against erythromycin-resistant Streptococcus pneumoniae A22072 expressing the mef gene by broth microdilution method
[4] = test system: Streptococcus pneumoniae; experiment: Antimicrobial activity against erythromycin-resistant Streptococcus pneumoniae AB11 expressing the erm and mef gene by broth microdilution method
[5] = test system: Staphylococcus aureus; experiment: Antimicrobial activity against erythromycin-susceptible Staphylococcus aureus ATCC 25923 by broth microdilution method
[6] = test system: Staphylococcus aureus; experiment: Antimicrobial activity against penicillin-susceptible Staphylococcus aureus P1 by broth microdilution method
[7] = test system: Streptococcus pyogenes; experiment: Antimicrobial activity against erythromycin-susceptible Streptococcus pyogenes S2 by broth microdilution method
[8] = test system: Streptococcus pyogenes; experiment: Antimicrobial activity against erythromycin-resistant Streptococcus pyogenes R2 by broth microdilution method

## CC[C@H]1OC(=O)[C@H](C)[C@@H](O[C@H]2C[C@@](C)(OC)[C@@H](OC(=O)NCc3ccccc3)[C@H](C)O2)[C@H](C)[C@@H](O[C@@H]2O[C@H](C)C[C@H](N(C)C)[C@H]2O)[C@](C)(OC)C[C@@H](C)C(=O)[C@H](C)[C@@H](O)[C@]1(C)O
[1]
  MIC: 0.25 µg/mL (≈ 0.284 µM)
[2]
  MIC: 4 µg/mL (≈ 4.54 µM)
[3]
  MIC: 0.25 µg/mL (≈ 0.284 µM)
[4]
  MIC: 8 µg/mL (≈ 9.08 µM)
[5]
  MIC: 0.25 µg/mL (≈ 0.284 µM)
[6]
  MIC: 1 µg/mL (≈ 1.13 µM)
[7]
  MIC: 0.12 µg/mL (≈ 0.136 µM)
[8]
  MIC: 16 µg/mL (≈ 18.2 µM)

## CC[C@H]1OC(=O)[C@H](C)[C@@H](O[C@H]2C[C@@](C)(OC)[C@@H](OC(=O)NCc3ccc(F)cc3)[C@H](C)O2)[C@H](C)[C@@H](O[C@@H]2O[C@H](C)C[C@H](N(C)C)[C@H]2O)[C@](C)(OC)C[C@@H](C)C(=O)[C@H](C)[C@@H](O)[C@]1(C)O
[1]
  MIC: 0.06 µg/mL (≈ 0.0667 µM)
[2]
  MIC: 4 µg/mL (≈ 4.45 µM)
[3]
  MIC: 0.5 µg/mL (≈ 0.556 µM)
[4]
  MIC: 8 µg/mL (≈ 8.9 µM)
[5]
  MIC: 0.12 µg/mL (≈ 0.133 µM)
[6]
  MIC: 2 µg/mL (≈ 2.22 µM)
[7]
  MIC: 0.03 µg/mL (≈ 0.0334 µM)
[8]
  MIC: 0.5 µg/mL (≈ 0.556 µM)

## CC[C@H]1OC(=O)[C@H](C)[C@@H](O[C@H]2C[C@@](C)(OC)[C@@H](OC(=O)NCc3ccc(OC)cc3)[C@H](C)O2)[C@H](C)[C@@H](O[C@@H]2O[C@H](C)C[C@H](N(C)C)[C@H]2O)[C@](C)(OC)C[C@@H](C)C(=O)[C@H](C)[C@@H](O)[C@]1(C)O
[1]
  MIC: 0.03 µg/mL (≈ 0.0329 µM)
[2]
  MIC: 16 µg/mL (≈ 17.6 µM)
[3]
  MIC: 0.25 µg/mL (≈ 0.274 µM)
[4]
  MIC: 32 µg/mL (≈ 35.1 µM)
[5]
  MIC: 0.12 µg/mL (≈ 0.132 µM)
[6]
  MIC: 8 µg/mL (≈ 8.78 µM)
[7]
  MIC: 0.03 µg/mL (≈ 0.0329 µM)
[8]
  MIC: 0.12 µg/mL (≈ 0.132 µM)

## CC[C@H]1OC(=O)[C@H](C)[C@@H](O[C@H]2C[C@@](C)(OC)[C@@H](OC(=O)NCCc3ccc(O)cc3)[C@H](C)O2)[C@H](C)[C@@H](O[C@@H]2O[C@H](C)C[C@H](N(C)C)[C@H]2O)[C@](C)(OC)C[C@@H](C)C(=O)[C@H](C)[C@@H](O)[C@]1(C)O
[1]
  MIC: 0.12 µg/mL (≈ 0.132 µM)
[2]
  MIC: 128 µg/mL (≈ 140 µM)
[3]
  MIC: 4 µg/mL (≈ 4.39 µM)
[4]
  MIC: 128 µg/mL (≈ 140 µM)
[5]
  MIC: 0.25 µg/mL (≈ 0.274 µM)
[6]
  MIC: 16 µg/mL (≈ 17.6 µM)
[7]
  MIC: 0.03 µg/mL (≈ 0.0329 µM)
[8]
  MIC: 0.25 µg/mL (≈ 0.274 µM)

## CC[C@H]1OC(=O)[C@H](C)[C@@H](O[C@H]2C[C@@](C)(OC)[C@@H](OC(=O)NCCc3ccccc3Cl)[C@H](C)O2)[C@H](C)[C@@H](O[C@@H]2O[C@H](C)C[C@H](N(C)C)[C@H]2O)[C@](C)(OC)C[C@@H](C)C(=O)[C@H](C)[C@@H](O)[C@]1(C)O
[1]
  MIC: 0.06 µg/mL (≈ 0.0645 µM)
[2]
  MIC: 16 µg/mL (≈ 17.2 µM)
[3]
  MIC: 0.5 µg/mL (≈ 0.538 µM)
[4]
  MIC: 32 µg/mL (≈ 34.4 µM)
[5]
  MIC: 0.12 µg/mL (≈ 0.129 µM)
[6]
  MIC: 0.25 µg/mL (≈ 0.269 µM)
[7]
  MIC: 0.03 µg/mL (≈ 0.0323 µM)
[8]
  MIC: 0.5 µg/mL (≈ 0.538 µM)

## CC[C@H]1OC(=O)[C@H](C)[C@@H](O[C@H]2C[C@@](C)(OC)[C@@H](OC(=O)NCCc3ccccc3)[C@H](C)O2)[C@H](C)[C@@H](O[C@@H]2O[C@H](C)C[C@H](N(C)C)[C@H]2O)[C@](C)(OC)C[C@@H](C)C(=O)[C@H](C)[C@@H](O)[C@]1(C)O
[1]
  MIC: 0.03 µg/mL (≈ 0.0335 µM)
[2]
  MIC: 16 µg/mL (≈ 17.9 µM)
[3]
  MIC: 1 µg/mL (≈ 1.12 µM)
[4]
  MIC: 64 µg/mL (≈ 71.5 µM)
[5]
  MIC: 0.12 µg/mL (≈ 0.134 µM)
[6]
  MIC: 0.06 µg/mL (≈ 0.067 µM)
[7]
  MIC: 0.03 µg/mL (≈ 0.0335 µM)
[8]
  MIC: 0.25 µg/mL (≈ 0.279 µM)

## CC[C@H]1OC(=O)[C@H](C)[C@@H](O[C@H]2C[C@@](C)(OC)[C@@H](OC(=O)NCCc3ccc4c(c3)OCO4)[C@H](C)O2)[C@H](C)[C@@H](O[C@@H]2O[C@H](C)C[C@H](N(C)C)[C@H]2O)[C@](C)(OC)C[C@@H](C)C(=O)[C@H](C)[C@@H](O)[C@]1(C)O
[1]
  MIC: 0.06 µg/mL (≈ 0.0639 µM)
[2]
  MIC: 32 µg/mL (≈ 34.1 µM)
[3]
  MIC: 0.25 µg/mL (≈ 0.266 µM)
[4]
  MIC: 64 µg/mL (≈ 68.1 µM)
[5]
  MIC: 0.25 µg/mL (≈ 0.266 µM)
[6]
  MIC: 0.5 µg/mL (≈ 0.532 µM)
[7]
  MIC: 0.5 µg/mL (≈ 0.532 µM)
[8]
  MIC: 0.5 µg/mL (≈ 0.532 µM)

## CC[C@H]1OC(=O)[C@H](C)[C@@H](O[C@H]2C[C@@](C)(OC)[C@@H](OC(=O)NCCCC(=O)NCc3ccccc3)[C@H](C)O2)[C@H](C)[C@@H](O[C@@H]2O[C@H](C)C[C@H](N(C)C)[C@H]2O)[C@](C)(OC)C[C@@H](C)C(=O)[C@H](C)[C@@H](O)[C@]1(C)O
[1]
  MIC: 0.03 µg/mL (≈ 0.031 µM)
[2]
  MIC: 2 µg/mL (≈ 2.07 µM)
[3]
  MIC: 0.5 µg/mL (≈ 0.517 µM)
[4]
  MIC: 0.25 µg/mL (≈ 0.259 µM)
[5]
  MIC: 0.12 µg/mL (≈ 0.124 µM)
[6]
  MIC: 4 µg/mL (≈ 4.14 µM)
[7]
  MIC: 0.25 µg/mL (≈ 0.259 µM)
[8]
  MIC: 64 µg/mL (≈ 66.2 µM)

## CC[C@H]1OC(=O)[C@H](C)[C@@H](O[C@H]2C[C@@](C)(OC)[C@@H](OC(=O)NCCCC(=O)NCc3ccc(F)cc3)[C@H](C)O2)[C@H](C)[C@@H](O[C@@H]2O[C@H](C)C[C@H](N(C)C)[C@H]2O)[C@](C)(OC)C[C@@H](C)C(=O)[C@H](C)[C@@H](O)[C@]1(C)O
[1]
  MIC: 0.03 µg/mL (≈ 0.0305 µM)
[2]
  MIC: 1 µg/mL (≈ 1.02 µM)
[3]
  MIC: 0.25 µg/mL (≈ 0.254 µM)
[4]
  MIC: 2 µg/mL (≈ 2.03 µM)
[5]
  MIC: 0.12 µg/mL (≈ 0.122 µM)
[6]
  MIC: 1 µg/mL (≈ 1.02 µM)
[7]
  MIC: 0.25 µg/mL (≈ 0.254 µM)
[8]
  MIC: 16 µg/mL (≈ 16.3 µM)

## CC[C@H]1OC(=O)[C@H](C)[C@@H](O[C@H]2C[C@@](C)(OC)[C@@H](OC(=O)NCCCC(=O)NCc3ccc(OC)cc3)[C@H](C)O2)[C@H](C)[C@@H](O[C@@H]2O[C@H](C)C[C@H](N(C)C)[C@H]2O)[C@](C)(OC)C[C@@H](C)C(=O)[C@H](C)[C@@H](O)[C@]1(C)O
[1]
  MIC: 0.03 µg/mL (≈ 0.0301 µM)
[2]
  MIC: 0.06 µg/mL (≈ 0.0602 µM)
[3]
  MIC: 0.25 µg/mL (≈ 0.251 µM)
[4]
  MIC: 1 µg/mL (≈ 1 µM)
[5]
  MIC: 0.12 µg/mL (≈ 0.12 µM)
[6]
  MIC: 8 µg/mL (≈ 8.03 µM)
[7]
  MIC: 0.03 µg/mL (≈ 0.0301 µM)
[8]
  MIC: 0.5 µg/mL (≈ 0.502 µM)
